Assay results reported in patent US11149023B2, “Substituted triazole derivatives and uses thereof” (Bayer Pharma Aktiengesellschaft, priority 2017, dated 2021).

Columns and labels:
[1] = molecular target: human V1a receptor (Homo sapiens (Human), UniProt P37288); assay: Cellular in vitro assay for determining vasopressin receptor activity (V1a, aequorin luminescence); assay type: cell-based; conditions: for IC50: CHO cell line transfected with human V1a receptor, [Arg8]-vasopressin at EC50 concentration, read-out: IC50 hV1a; for ratio IC50 hV2/hV1a: selectivity, IC50 hV2 divided by IC50 hV1a
[2] = molecular target: human V2 receptor (Homo sapiens (Human), UniProt P30518); assay: Cellular in vitro assay for determining vasopressin receptor activity (V2, CRE-luciferase); assay type: cell-based; conditions: CHO cell line transfected with human V2 receptor; [Arg8]-vasopressin at EC50 concentration; read-out: IC50 hV2
human V2 receptor, sequence (P30518 whole entry): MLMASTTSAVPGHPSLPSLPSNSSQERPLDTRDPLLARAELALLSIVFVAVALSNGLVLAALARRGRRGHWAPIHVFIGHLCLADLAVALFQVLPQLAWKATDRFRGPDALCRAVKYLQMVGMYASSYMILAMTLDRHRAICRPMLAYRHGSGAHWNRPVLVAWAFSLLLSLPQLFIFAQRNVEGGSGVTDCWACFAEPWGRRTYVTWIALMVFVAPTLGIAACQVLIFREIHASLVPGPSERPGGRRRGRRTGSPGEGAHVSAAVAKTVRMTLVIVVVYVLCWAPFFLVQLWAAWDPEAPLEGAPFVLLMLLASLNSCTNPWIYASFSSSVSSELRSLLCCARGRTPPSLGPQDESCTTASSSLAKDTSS

human V1a receptor, sequence (P37288 whole entry): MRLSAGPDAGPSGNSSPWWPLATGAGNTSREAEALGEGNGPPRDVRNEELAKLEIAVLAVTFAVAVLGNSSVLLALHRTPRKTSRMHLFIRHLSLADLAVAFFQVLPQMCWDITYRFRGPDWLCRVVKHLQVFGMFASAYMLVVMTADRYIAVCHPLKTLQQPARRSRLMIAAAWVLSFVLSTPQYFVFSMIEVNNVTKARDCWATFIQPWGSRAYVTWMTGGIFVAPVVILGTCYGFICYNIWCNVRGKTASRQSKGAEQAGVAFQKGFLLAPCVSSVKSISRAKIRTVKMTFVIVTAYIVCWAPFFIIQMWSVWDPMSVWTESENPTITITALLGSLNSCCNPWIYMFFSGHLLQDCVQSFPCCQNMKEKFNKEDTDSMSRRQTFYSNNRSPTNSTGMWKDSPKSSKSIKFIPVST

O=C(CCC(F)(F)F)NC(Cn1c(-c2ccc(Cl)cc2)nn(Cc2ncn(-c3ncccc3Cl)n2)c1=O)C(F)(F)F (single isomer, unassigned) [Example 33, N-{3-[3-(4-Chlorophenyl)-1-{[1-(3-chloropyridin-2-yl)-1H-1,2,4-triazol-3-yl]methyl}-5-oxo-1,5-dihydro-4H-1,2,4-triazol-4-yl]-1,1,1-trifluoropropan-2-yl}-4,4,4-trifluorobutanamide]
IC50 [1]: 0.215 µM
IC50 [2]: 5.6 µM

O=C(CCC(F)(F)F)NC(Cn1c(-c2ccc(Cl)cc2)nn(Cc2ncn(-c3ncccc3Cl)n2)c1=O)C(F)(F)F (single isomer, unassigned) [Example 34, N-{3-[3-(4-Chlorophenyl)-1-{[1-(3-chloropyridin-2-yl)-1H-1,2,4-triazol-3-yl]methyl}-5-oxo-1,5-dihydro-4H-1,2,4-triazol-4-yl]-1,1,1-trifluoropropan-2-yl}-4,4,4-trifluorobutanamide]
IC50 [1]: 0.00082 µM
IC50 [2]: 0.0335 µM

O=C1CC[C@@H](C(=O)NC(Cn2c(-c3ccc(Cl)cc3)nn(Cc3ncn(-c4ncccc4Cl)n3)c2=O)C(F)(F)F)N1 (single isomer, unassigned) [Example 36, N-{3-[3-(4-Chlorophenyl)-1-{[1-(3-chloropyridin-2-yl)-1H-1,2,4-triazol-3-yl]methyl}-5-oxo-1,5-dihydro-4H-1,2,4-triazol-4-yl]-1,1,1-trifluoropropan-2-yl}-5-oxo-L-prolinamide]
IC50 [1]: 0.0035 µM
ratio IC50 hV2/hV1a [1]: 254.3
IC50 [2]: 0.89 µM

O=C1CC[C@@H](C(=O)NC(Cn2c(-c3ccc(Cl)cc3)nn(Cc3ncn(-c4ncccc4Cl)n3)c2=O)C(F)(F)F)N1 (single isomer, unassigned) [Example 37, N-{3-[3-(4-Chlorophenyl)-1-{[1-(3-chloropyridin-2-yl)-1H-1,2,4-triazol-3-yl]methyl}-5-oxo-1,5-dihydro-4H-1,2,4-triazol-4-yl]-1,1,1-trifluoropropan-2-yl}-5-oxo-L-prolinamide]
IC50 [1]: 0.295 µM
ratio IC50 hV2/hV1a [1]: 108.5
IC50 [2]: 32 µM

O=C(NC(Cn1c(-c2ccc(Cl)cc2)nn(Cc2ncn(-c3ncccc3Cl)n2)c1=O)C(F)(F)F)C1CS(=O)(=O)C1 (single isomer, unassigned) [Example 39, N-{3-[3-(4-Chlorophenyl)-1-{[1-(3-chloropyridin-2-yl)-1H-1,2,4-triazol-3-yl]methyl}-5-oxo-1,5-dihydro-4H-1,2,4-triazol-4-yl]-1,1,1-trifluoropropan-2-yl}thietane-3-carboxamide 1,1-dioxide]
IC50 [1]: 0.00048 µM
IC50 [2]: 0.0532 µM

O=C(NC(Cn1c(-c2ccc(Cl)cc2)nn(Cc2ncn(-c3ncccc3Cl)n2)c1=O)C(F)(F)F)C1CS(=O)(=O)C1 (single isomer, unassigned) [Example 40, N-{3-[3-(4-Chlorophenyl)-1-{[1-(3-chloropyridin-2-yl)-1H-1,2,4-triazol-3-yl]methyl}-5-oxo-1,5-dihydro-4H-1,2,4-triazol-4-yl]-1,1,1-trifluoropropan-2-yl}thietane-3-carboxamide 1,1-dioxide]
IC50 [1]: 0.37 µM
IC50 [2]: 9.87 µM

O=C(NC(Cn1c(-c2ccc(Cl)cc2)nn(Cc2ncn(-c3ncccc3Cl)n2)c1=O)C(F)(F)F)C1(C(F)(F)F)CC1 (single isomer, unassigned) [Example 42, N-{3-[3-(4-Chlorophenyl)-1-{[1-(3-chloropyridin-2-yl)-1H-1,2,4-triazol-3-yl]methyl}-5-oxo-1,5-dihydro-4H-1,2,4-triazol-4-yl]-1,1,1-trifluoropropan-2-yl}-1-(trifluoromethyl)cyclopropane-carboxamide]
IC50 [1]: 1.35 µM
IC50 [2]: 12.1 µM

CS(=O)(=O)CC(=O)NC(Cn1c(-c2ccc(Cl)cc2)nn(Cc2ncn(-c3ncccc3Cl)n2)c1=O)C(F)(F)F (single isomer, unassigned) [Example 45, N-{3-[3-(4-Chlorophenyl)-1-{[1-(3-chloropyridin-2-yl)-1H-1,2,4-triazol-3-yl]methyl}-5-oxo-1,5-dihydro-4H-1,2,4-triazol-4-yl]-1,1,1-trifluoropropan-2-yl}-2-(methylsulfonyl)acetamide]
IC50 [1]: 0.235 µM
IC50 [2]: 2.3 µM

CS(=O)(=O)CC(=O)NC(Cn1c(-c2ccc(Cl)cc2)nn(Cc2ncn(-c3ncccc3Cl)n2)c1=O)C(F)(F)F (single isomer, unassigned) [Example 46, N-{3-[3-(4-Chlorophenyl)-1-{[1-(3-chloropyridin-2-yl)-1H-1,2,4-triazol-3-yl]methyl}-5-oxo-1,5-dihydro-4H-1,2,4-triazol-4-yl]-1,1,1-trifluoropropan-2-yl}-2-(methylsulfonyl)acetamide]
IC50 [1]: 0.00135 µM
IC50 [2]: 0.0578 µM

O=C1NCC(C(=O)NC(Cn2c(-c3ccc(Cl)cc3)nn(Cc3ncn(-c4ncccc4Cl)n3)c2=O)C(F)(F)F)N1 (stereo not drawn) [Example 2]
IC50 [1]: 0.0405 µM
ratio IC50 hV2/hV1a [1]: 59.3
IC50 [2]: 2.4 µM

O=C(NC(Cn1c(-c2ccc(Cl)cc2)nn(Cc2ncn(-c3ncccc3Cl)n2)c1=O)C(F)(F)F)C1CCO1 (stereo not drawn) [Example 3, N-{3-[3-(4-Chlorophenyl)-1-{[1-(3-chloropyridin-2-yl)-1H-1,2,4-triazol-3-yl]methyl}-5-oxo-1,5-dihydro-4H-1,2,4-triazol-4-yl]-1,1,1-trifluoropropan-2-yl}oxetane-2-carboxamide]
IC50 [1]: 0.0041 µM
ratio IC50 hV2/hV1a [1]: 108.5
IC50 [2]: 0.445 µM

O=C(NC(Cn1c(-c2ccc(Cl)cc2)nn(Cc2ncn(-c3ncccc3Cl)n2)c1=O)C(F)(F)F)C1CC1(F)F (stereo not drawn) [Example 7, N-{3-[3-(4-Chlorophenyl)-1-{[1-(3-chloropyridin-2-yl)-1H-1,2,4-triazol-3-yl]methyl}-5-oxo-1,5-dihydro-4H-1,2,4-triazol-4-yl]-1,1,1-trifluoropropan-2-yl}-2,2-difluorocyclopropanecarboxamide]
IC50 [1]: 0.00165 µM
ratio IC50 hV2/hV1a [1]: 78.8
IC50 [2]: 0.13 µM

CC(F)C(=O)NC(Cn1c(-c2ccc(Cl)cc2)nn(Cc2ncn(-c3ncccc3Cl)n2)c1=O)C(F)(F)F (stereo not drawn) [Example 10]
IC50 [1]: 0.0061 µM
ratio IC50 hV2/hV1a [1]: 59.8
IC50 [2]: 0.365 µM

O=C(NC(Cn1c(-c2ccc(Cl)cc2)nn(Cc2ncn(-c3ncccc3Cl)n2)c1=O)C(F)(F)F)C1CC1F (stereo not drawn) [Example 12, N-{3-[3-(4-Chlorophenyl)-1-{[1-(3-chloropyridin-2-yl)-1H-1,2,4-triazol-3-yl]methyl}-5-oxo-1,5-dihydro-4H-1,2,4-triazol-4-yl]-1,1,1-trifluoropropan-2-yl}-2-fluorocyclopropanecarboxamide]
IC50 [1]: 0.0225 µM
ratio IC50 hV2/hV1a [1]: 24.9
IC50 [2]: 0.56 µM

O=C(NC(Cn1c(-c2ccc(Cl)cc2)nn(Cc2ncn(-c3ncccc3Cl)n2)c1=O)C(F)(F)F)C1CC1C(F)(F)F (stereo not drawn) [Example 18, N-{3-[3-(4-Chlorophenyl)-1-{[1-(3-chloropyridin-2-yl)-1H-1,2,4-triazol-3-yl]methyl}-5-oxo-1,5-dihydro-4H-1,2,4-triazol-4-yl]-1,1,1-trifluoropropan-2-yl}-2-(trifluoromethyl)cyclopropanecarboxamide]
IC50 [1]: 0.0025 µM
ratio IC50 hV2/hV1a [1]: 13.4
IC50 [2]: 0.0335 µM

CC(C)(C)OC(=O)N1CCC(C(=O)NC(Cn2c(-c3ccc(Cl)cc3)nn(Cc3ncn(-c4ncccc4Cl)n3)c2=O)C(F)(F)F)C1 (stereo not drawn) [Example 23, tert-Butyl 3-({3-[3-(4-chlorophenyl)-1-{[1-(3-chloropyridin-2-yl)-1H-1,2,4-triazol-3-yl]methyl}-5-oxo-1,5-dihydro-4H-1,2,4-triazol-4-yl]-1,1,1-trifluoropropan-2-yl}carbamoyl)pyrrolidine-1-carboxylate]
IC50 [1]: 0.00101 µM
IC50 [2]: 0.0725 µM

O=C(NC(Cn1c(-c2ccc(Cl)cc2)nn(Cc2ncn(-c3ncccc3Cl)n2)c1=O)C(F)(F)F)C1CCNC1 (stereo not drawn) [Example 24, N-{3-[3-(4-Chlorophenyl)-1-{[1-(3-chloropyridin-2-yl)-1H-1,2,4-triazol-3-yl]methyl}-5-oxo-1,5-dihydro-4H-1,2,4-triazol-4-yl]-1,1,1-trifluoropropan-2-yl}pyrrolidine-3-carboxamide]
IC50 [1]: 0.0044 µM
ratio IC50 hV2/hV1a [1]: 160.8
IC50 [2]: 0.708 µM

CC(C)(C)OC(=O)NC1(C(=O)NC(Cn2c(-c3ccc(Cl)cc3)nn(Cc3ncn(-c4ncccc4Cl)n3)c2=O)C(F)(F)F)CCC1 (stereo not drawn) [Example 28, tert-Butyl [1-({3-[3-(4-chlorophenyl)-1-{[1-(3-chloropyridin-2-yl)-1H-1,2,4-triazol-3-yl]methyl}-5-oxo-1,5-dihydro-4H-1,2,4-triazol-4-yl]-1,1,1-trifluoropropan-2-yl}carbamoyl)cyclobutyl]-carbamate]
IC50 [1]: 0.00185 µM
IC50 [2]: 0.0225 µM

O=C(NC(Cn1c(-c2ccc(Cl)cc2)nn(Cc2ncn(-c3ncccc3Cl)n2)c1=O)C(F)(F)F)C1CCS(=O)(=O)C1 (stereo not drawn) [Example 30, N-{3-[3-(4-Chlorophenyl)-1-{[1-(3-chloropyridin-2-yl)-1H-1,2,4-triazol-3-yl]methyl}-5-oxo-1,5-dihydro-4H-1,2,4-triazol-4-yl]-1,1,1-trifluoropropan-2-yl}tetrahydrothiophene-3-carboxamide 1,1-dioxide]
IC50 [1]: 0.0063 µM
ratio IC50 hV2/hV1a [1]: 33.9
IC50 [2]: 0.213 µM

O=C(N[C@@H](Cn1c(-c2ccc(Cl)cc2)nn(Cc2ncn(-c3ncccc3Cl)n2)c1=O)C(F)(F)F)C1(C(F)(F)F)CC1 [Example 43]
IC50 [1]: 0.0014 µM
ratio IC50 hV2/hV1a [1]: 40.9
IC50 [2]: 0.0573 µM

O=C(NC(Cn1c(-c2ccc(Cl)cc2)nn(Cc2ncn(-c3ncccc3Cl)n2)c1=O)C(F)(F)F)C1CCCN1 (stereo not drawn) [Example 47, N-{3-[3-(4-Chlorophenyl)-1-{[1-(3-chloropyridin-2-yl)-1H-1,2,4-triazol-3-yl]methyl}-5-oxo-1,5-dihydro-4H-1,2,4-triazol-4-yl]-1,1,1-trifluoropropan-2-yl}-prolinamide]
IC50 [1]: 0.00185 µM
ratio IC50 hV2/hV1a [1]: 27.0
IC50 [2]: 0.05 µM

O=C(NC(Cn1c(-c2ccc(Cl)cc2)nn(Cc2ncn(-c3ncccc3Cl)n2)c1=O)C(F)(F)F)[C@@H]1CC(C(F)(F)F)CN1 (stereo partly drawn) [Example 50]
IC50 [1]: 0.0032 µM
ratio IC50 hV2/hV1a [1]: 46.9
IC50 [2]: 0.15 µM
